Measurements published in patent publication EP4806912A1, “DUAL AGONIST COMPOUND” (Chengdu Aoda Biotechnology Co., Ltd, priority 2023, dated 2025).
pEC50: −log10 of the molar value.

What was measured:
GLP-1R = target: T1, GLP-1R (Homo sapiens, UniProt P43220); test: GLP-1 activity test (cAMP, chemiluminescence, CHO-K1 cell line stably expressing GLP-1R); format: cell-based; conditions: relative luminescence units, read-out: GLP-1 activity [EC50(pmol)]
T1 construct: expressed in transfected cells; host or cells: CHO-K1
T1 sequence (P43220 24-463, species assumed): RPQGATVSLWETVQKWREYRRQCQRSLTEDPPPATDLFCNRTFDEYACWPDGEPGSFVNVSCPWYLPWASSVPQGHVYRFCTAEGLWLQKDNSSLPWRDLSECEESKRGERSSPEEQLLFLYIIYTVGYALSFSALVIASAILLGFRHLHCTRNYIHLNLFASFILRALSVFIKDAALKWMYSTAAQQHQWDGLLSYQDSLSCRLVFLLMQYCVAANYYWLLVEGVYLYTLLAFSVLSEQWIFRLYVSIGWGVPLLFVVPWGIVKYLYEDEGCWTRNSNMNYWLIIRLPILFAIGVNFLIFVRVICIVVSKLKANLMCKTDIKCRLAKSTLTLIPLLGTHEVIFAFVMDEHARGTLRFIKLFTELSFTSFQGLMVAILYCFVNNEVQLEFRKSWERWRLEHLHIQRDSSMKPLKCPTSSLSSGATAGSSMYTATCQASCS
Procedure: (§1) Upon stimulation by a specific agonist, GLP-1R activates the intracellular adenylate cyclase signaling pathway, resulting in an increase in cAMP levels and ultimately leading to insulin production and secretion. A cell line stably transfected with GLP-1R was stimulated with test compounds, thereby rapidly increasing intracellular cAMP levels. The relative luminescence units (RLU) of cells stimulated at various concentrations were measured by a chemiluminescence method, and the EC50 value of the agonist was calculated accordingly. This activity test method is currently a commonly used method for evaluating GLP-1 receptor agonist activity both domestically and internationally.
A CHO-K1 cell line stably expressing GLP-1R was used. The stable cells were stimulated with agonists at different concentrations, and the relative luminescence units after stimulation at each concentration were measured to calculate the EC50 value of the agonist.

GCG-R = target: T2, GCG-R (Homo sapiens, UniProt P47871); test: GCG activity test (cAMP, chemiluminescence, CHO-K1 cell line stably expressing GCG-R); format: cell-based; conditions: relative luminescence units, read-out: GCG activity [EC50(nmol)]
T2 construct: expressed in transfected cells; host or cells: CHO-K1
T2 sequence (P47871 26-477, species assumed): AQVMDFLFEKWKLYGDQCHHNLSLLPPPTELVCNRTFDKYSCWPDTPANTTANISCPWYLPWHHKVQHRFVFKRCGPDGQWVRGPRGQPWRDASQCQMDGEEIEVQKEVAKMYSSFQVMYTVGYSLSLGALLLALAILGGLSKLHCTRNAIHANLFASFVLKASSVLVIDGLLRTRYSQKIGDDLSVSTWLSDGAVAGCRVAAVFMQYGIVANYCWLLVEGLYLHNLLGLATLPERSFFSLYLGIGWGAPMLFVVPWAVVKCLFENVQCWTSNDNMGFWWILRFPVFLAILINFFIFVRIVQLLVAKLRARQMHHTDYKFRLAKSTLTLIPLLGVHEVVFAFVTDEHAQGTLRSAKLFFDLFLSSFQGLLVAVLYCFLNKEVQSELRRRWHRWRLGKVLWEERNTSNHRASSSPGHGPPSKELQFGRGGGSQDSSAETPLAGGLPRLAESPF
Procedure: as §1, with “agonist, GCG-R” for “agonist, GLP-1R”, “with GCG-R” for “with GLP-1R”, “activity assay” for “activity test”, “evaluating GCG” for “evaluating GLP-1”
A CHO-K1 cell line stably expressing GCG-R was used. The stable cells were stimulated with agonists at different concentrations, and the relative luminescence units after stimulation at each concentration were measured to calculate the EC50 value of the agonist.

Row | Structure (SMILES) | pEC50 (GLP-1R) | pEC50 (GCG-R)
1 | CC(C)C[C@H](NC(=O)[C@H](CC(C)C)NC(=O)[C@H](Cc1c[nH]c2ccccc12)NC(=O)[C@H](CCC(=O)O)NC(=O)[C@@H](NC(=O)[C@H](Cc1ccccc1)NC(=O)[C@H](CCC(=O)O)NC(=O)[C@H](CCCCNC(=O)COCCOCCOCCOCCOCCNC(=O)CCCC[C@H](NC(=O)CCCCCCCCCCCCCCCCCCC(=O)O)C(=O)O)NC(=O)[C@H](C)NC(=O)[C@H](CCCCN)NC(=O)[C@H](CCCCN)NC(=O)[C@H](CCC(=O)O)NC(=O)[C@H](CC(=O)O)NC(=O)[C@H](CC(C)C)NC(=O)[C@H](Cc1ccc(O)cc1)NC(=O)[C@H](CCCCN)NC(=O)[C@H](CO)NC(=O)[C@H](Cc1ccc(O)cc1)NC(=O)[C@H](CC(=O)O)NC(=O)[C@H](CO)NC(=O)[C@@H](NC(=O)C(C)(Cc1ccccc1)NC(=O)[C@@H](NC(=O)CNC(=O)[C@H](CCC(N)=O)NC(=O)C(C)(C)NC(=O)[C@@H](N)Cc1c[nH]cn1)[C@@H](C)O)[C@@H](C)O)C(C)C)C(=O)N[C@@H](CCC(=O)O)C(=O)NCCCCC(=O)N1CCC[C@H]1C(=O)N[C@@H](CO)C(=O)N[C@@H](CO)C(=O)NCC(=O)N[C@@H](C)C(=O)N1CCC[C@H]1C(=O)N1CCC[C@H]1C(=O)N1CCC[C@H]1C(=O)N[C@@H](CO)C(N)=O (stereo partly drawn) [Compound 7] | 10.04 | 8.64
2 | CC(C)C[C@H](NC(=O)[C@H](CC(C)C)NC(=O)[C@H](Cc1c[nH]c2ccccc12)NC(=O)[C@H](CCC(=O)O)NC(=O)[C@@H](NC(=O)[C@H](Cc1ccccc1)NC(=O)[C@H](CCC(=O)O)NC(=O)[C@H](CCCCNC(=O)COCCOCCOCCOCCOCCNC(=O)CCCCC[C@H](NC(=O)CCCCCCCCCCCCCCCCCCC(=O)O)C(=O)O)NC(=O)[C@H](C)NC(=O)[C@H](CCCCN)NC(=O)[C@H](CCCCN)NC(=O)[C@H](CCC(=O)O)NC(=O)[C@H](CC(=O)O)NC(=O)[C@H](CC(C)C)NC(=O)[C@H](Cc1ccc(O)cc1)NC(=O)[C@H](CCCCN)NC(=O)[C@H](CO)NC(=O)[C@H](Cc1ccc(O)cc1)NC(=O)[C@H](CC(=O)O)NC(=O)[C@H](CO)NC(=O)[C@@H](NC(=O)C(C)(Cc1ccccc1)NC(=O)[C@@H](NC(=O)CNC(=O)[C@H](CCC(N)=O)NC(=O)C(C)(C)NC(=O)[C@@H](N)Cc1c[nH]cn1)[C@@H](C)O)[C@@H](C)O)C(C)C)C(=O)N[C@@H](CCC(=O)O)C(=O)NCCCCC(=O)N1CCC[C@H]1C(=O)N[C@@H](CO)C(=O)N[C@@H](CO)C(=O)NCC(=O)N[C@@H](C)C(=O)N1CCC[C@H]1C(=O)N1CCC[C@H]1C(=O)N1CCC[C@H]1C(=O)N[C@@H](CO)C(N)=O (stereo partly drawn) [Compound 8] | 9.98 | 8.59
3 | CC(C)C[C@H](NC(=O)[C@H](CC(C)C)NC(=O)[C@H](Cc1c[nH]c2ccccc12)NC(=O)[C@H](CCC(=O)O)NC(=O)[C@@H](NC(=O)[C@H](Cc1ccccc1)NC(=O)[C@H](CCC(=O)O)NC(=O)[C@H](CCCCNC(=O)COCCOCCOCCOCCOCCNC(=O)CCCC[C@H](NC(=O)CCCCCCCCCCCCCCCCCCC(=O)O)C(=O)O)NC(=O)[C@H](C)NC(=O)[C@H](CCCCN)NC(=O)[C@H](CCCCN)NC(=O)[C@H](CCC(=O)O)NC(=O)[C@H](CC(=O)O)NC(=O)[C@H](CC(C)C)NC(=O)[C@H](Cc1ccc(O)cc1)NC(=O)[C@H](CCCCN)NC(=O)[C@H](CO)NC(=O)[C@H](Cc1ccc(O)cc1)NC(=O)[C@H](CC(=O)O)NC(=O)[C@H](CO)NC(=O)[C@@H](NC(=O)C(C)(Cc1ccccc1F)NC(=O)[C@@H](NC(=O)CNC(=O)[C@H](CCC(N)=O)NC(=O)C(C)(C)NC(=O)[C@@H](N)Cc1c[nH]cn1)[C@@H](C)O)[C@@H](C)O)C(C)C)C(=O)N[C@@H](CCC(=O)O)C(=O)NCCCCC(=O)N1CCC[C@H]1C(=O)N[C@@H](CO)C(=O)N[C@@H](CO)C(=O)NCC(=O)N[C@@H](C)C(=O)N1CCC[C@H]1C(=O)N1CCC[C@H]1C(=O)N1CCC[C@H]1C(=O)N[C@@H](CO)C(N)=O (stereo partly drawn) [Compound 11] | 10.06 | 8.82
4 | CC(C)C[C@H](NC(=O)[C@H](CC(C)C)NC(=O)[C@H](Cc1c[nH]c2ccccc12)NC(=O)[C@H](CCC(=O)O)NC(=O)[C@@H](NC(=O)[C@H](Cc1ccccc1)NC(=O)[C@H](CCC(=O)O)NC(=O)[C@H](CCCCNC(=O)COCCOCCOCCOCCOCCNC(=O)CCCCC[C@H](NC(=O)CCCCCCCCCCCCCCCCCCC(=O)O)C(=O)O)NC(=O)[C@H](C)NC(=O)[C@H](CCCCN)NC(=O)[C@H](CCCCN)NC(=O)[C@H](CCC(=O)O)NC(=O)[C@H](CC(=O)O)NC(=O)[C@H](CC(C)C)NC(=O)[C@H](Cc1ccc(O)cc1)NC(=O)[C@H](CCCCN)NC(=O)[C@H](CO)NC(=O)[C@H](Cc1ccc(O)cc1)NC(=O)[C@H](CC(=O)O)NC(=O)[C@H](CO)NC(=O)[C@@H](NC(=O)C(C)(Cc1ccccc1F)NC(=O)[C@@H](NC(=O)CNC(=O)[C@H](CCC(N)=O)NC(=O)C(C)(C)NC(=O)[C@@H](N)Cc1c[nH]cn1)[C@@H](C)O)[C@@H](C)O)C(C)C)C(=O)N[C@@H](CCC(=O)O)C(=O)NCCCCC(=O)N1CCC[C@H]1C(=O)N[C@@H](CO)C(=O)N[C@@H](CO)C(=O)NCC(=O)N[C@@H](C)C(=O)N1CCC[C@H]1C(=O)N1CCC[C@H]1C(=O)N1CCC[C@H]1C(=O)N[C@@H](CO)C(N)=O (stereo partly drawn) [Compound 12] | 10.02 | 8.74
5 | CC(C)C[C@H](NC(=O)[C@H](CC(C)C)NC(=O)[C@H](Cc1c[nH]c2ccccc12)NC(=O)[C@H](CCC(=O)O)NC(=O)[C@@H](NC(=O)[C@H](Cc1ccccc1)NC(=O)[C@H](CCC(=O)O)NC(=O)[C@H](CCCCNC(=O)COCCOCCNC(=O)COCCOCCNC(=O)CC[C@H](NC(=O)CCCCCCCCCCCCCCCCCCC(=O)O)C(=O)O)NC(=O)[C@H](C)NC(=O)[C@H](CCCCN)NC(=O)[C@H](CCCCN)NC(=O)[C@H](CCC(=O)O)NC(=O)[C@H](CC(=O)O)NC(=O)[C@H](CC(C)C)NC(=O)[C@H](Cc1ccc(O)cc1)NC(=O)[C@H](CCCCN)NC(=O)[C@H](CO)NC(=O)[C@H](Cc1ccc(O)cc1)NC(=O)[C@H](CC(=O)O)NC(=O)[C@H](CO)NC(=O)[C@@H](NC(=O)C(C)(Cc1ccccc1)NC(=O)[C@@H](NC(=O)CNC(=O)[C@H](CCC(N)=O)NC(=O)C(C)(C)NC(=O)[C@@H](N)Cc1c[nH]cn1)[C@@H](C)O)[C@@H](C)O)C(C)C)C(=O)N[C@@H](CCC(=O)O)C(=O)NCCCCC(=O)N1CCC[C@H]1C(=O)N[C@@H](CO)C(=O)N[C@@H](CO)C(=O)NCC(=O)N[C@@H](C)C(=O)N1CCC[C@H]1C(=O)N1CCC[C@H]1C(=O)N1CCC[C@H]1C(=O)N[C@@H](CO)C(N)=O (stereo partly drawn) [Compound 14] | 10.06 | 8.60
6 | CC(C)C[C@H](NC(=O)[C@H](CC(C)C)NC(=O)[C@H](Cc1c[nH]c2ccccc12)NC(=O)[C@H](CCC(=O)O)NC(=O)[C@@H](NC(=O)[C@H](Cc1ccccc1)NC(=O)[C@H](CCC(=O)O)NC(=O)[C@H](CCCCNC(=O)COCCOCCNC(=O)COCCOCCNC(=O)CC[C@H](NC(=O)CCCCCCCCCCCCCCCCCCC(=O)O)C(=O)O)NC(=O)[C@H](C)NC(=O)[C@H](CCCCN)NC(=O)[C@H](CCCCN)NC(=O)[C@H](CCC(=O)O)NC(=O)[C@H](CC(=O)O)NC(=O)[C@H](CC(C)C)NC(=O)[C@H](Cc1ccc(O)cc1)NC(=O)[C@H](CCCCN)NC(=O)[C@H](CO)NC(=O)[C@H](Cc1ccc(O)cc1)NC(=O)[C@H](CC(=O)O)NC(=O)[C@H](CO)NC(=O)[C@@H](NC(=O)C(C)(Cc1ccccc1F)NC(=O)[C@@H](NC(=O)CNC(=O)[C@H](CCC(N)=O)NC(=O)C(C)(C)NC(=O)[C@@H](N)Cc1c[nH]cn1)[C@@H](C)O)[C@@H](C)O)C(C)C)C(=O)N[C@@H](CCC(=O)O)C(=O)NCCCCC(=O)N1CCC[C@H]1C(=O)N[C@@H](CO)C(=O)N[C@@H](CO)C(=O)NCC(=O)N[C@@H](C)C(=O)N1CCC[C@H]1C(=O)N1CCC[C@H]1C(=O)N1CCC[C@H]1C(=O)N[C@@H](CO)C(N)=O (stereo partly drawn) [Compound 15] | 10.08 | 8.74
